Among the data in PubChem BioAssay (NCI) are TGI values, retold here.

Assay in all cases: NCI anticancer screen, dose series, 48 h
The test system of assay [1] is RPMI-8226 leukemia.
Assay [2] has as its system SF-539 CNS.
For assay [3], the system named is NCI-H23 lung.
Assay [4] relates to SK-MEL-2 melanoma.
Assay [5] concerns IGROV1 ovarian.
Assay [6] has as its system SNB-19 CNS.
For assay [7], the system named is LOX IMVI melanoma.
The subject of assay [8] is MDA-MB-231 breast.
Assay [9] has as its system T-47D breast.
Assay [10] concerns K-562 leukemia.
The test system of assay [11] is UO-31 renal.
In assay [12] the test system is MCF7 breast.

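Briefly, cells in 96-well plates were exposed to five compound concentrations for 48 h, and endpoints were estimated by linear interpolation. TGI: total growth inhibition.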 Bounds are passed on as bounds.

With `C(=N\c1nc2cc3sc(/N=C/c4ccccc4)nc3cc2s1)/c1ccccc1`, the TGI in assay [1], in assay [2], in assay [3], in [4], in assay [5] and in assay [6] was greater than 100 µM in each case. Moreover, the TGI in [7], in [8], in [9], in assay [10], in [11] and in assay [12] was greater than 100 µM throughout.

As for `CC(NC1=NCCO1)c1ccccc1Cl` (centres undefined), the TGI in [1], in assay [2], in assay [3], in [4], in assay [5] and in assay [6] was greater than 100 µM each time. Further, the TGI in assay [7], in [8], in assay [9], in [10], in assay [11] and in [12] was greater than 100 µM each time.

On to `CCn1c(SCC(=O)N/N=C2\SCC(=O)N2c2ccc(C)cc2)nc2ccccc2c1=O`, for which the TGI was 52.7 µM in assay [1]; 33.5 µM in assay [2]; 42.2 µM in assay [3]; greater than 100 µM in assay [4]; 43.2 µM in assay [5]; 43.6 µM in assay [6]. For the same compound, the TGI in assay [7] was 55.6 µM; in assay [8], 36.3 µM; in assay [9], 54.9 µM; in [10] it was greater than 100 µM; in assay [11], 30.3 µM; in assay [12], 45.9 µM.

On to `ClCc1nc2ccccc2[nH]1`, for which the TGI in assay [1], in assay [2], in assay [3], in [4], in [5] and in assay [6] was greater than 100 µM throughout. In addition, the TGI in [7], in [8], in assay [9], in assay [10], in assay [11] and in [12] was greater than 100 µM in each case.

On to `CC(C)(C)c1cc(/C=C(\C#N)C2=NCCO2)cc(C(C)(C)C)c1O`, for which the TGI is 4.74 µM in assay [1]; 12.2 µM in assay [2]; 13.4 µM in assay [3]; 8.55 µM in assay [4]; 21.9 µM in assay [5]; 15.5 µM in assay [6]. Further, the TGI in assay [7] amounted to 18.8 µM; in [8], 12.4 µM; in [9] it was 9.13 µM; in assay [10], 16.5 µM; in [11] it was 9.27 µM; in [12], 12.7 µM.

Turning to `COc1ccc(CCN2CCN(CCCc3ccccc3)CC2)cc1`, the TGI in assay [1], in [2], in assay [3], in assay [4], in assay [5] and in [6] was greater than 100 µM in each case. Moreover, the TGI in assay [7], in [8], in assay [9], in assay [10], in [11] and in assay [12] was greater than 100 µM in each case.

In the case of `COC(=O)C1=C(C)NC(=O)N2[C@@H](CCOCc3ccccc3)CC[C@@H]12`, the TGI in assay [1], in [2], in [3], in assay [4], in assay [5] and in [6] was greater than 50 µM in each case. Also, the TGI in [7] was greater than 50 µM; in assay [8], greater than 50 µM; in [9], 49.1 µM; in assay [10], greater than 50 µM; in [11] it was greater than 50 µM; in assay [12] it was greater than 50 µM.

Take `CCOC(=O)C(NC(=O)c1cccc(Cl)c1)(Nc1ccc(S(=O)(=O)Nc2cc(C)on2)cc1)C(F)(F)F` (centres undefined): the TGI in [1], in assay [2], in assay [3], in assay [4], in assay [5] and in assay [6] was greater than 100 µM in each case. In addition, the TGI in [7], in assay [8], in assay [9], in assay [10], in assay [11] and in [12] was greater than 100 µM each time.

Consider `COC(=O)c1cc2c(c(C(=O)OC)c1)CCC2`, for which the TGI in assay [1], in assay [2], in assay [3], in [4], in [5] and in assay [6] was greater than 100 µM in each case. The TGI in [7], in assay [8], in assay [9], in [10], in assay [11] and in assay [12] was greater than 100 µM each time.

With `COc1cc(C2C=C(c3ccccc3)Oc3cc4c(cc32)OCO4)cc(OC)c1OC` (centres undefined), the TGI in assay [1] is greater than 100 µM; in [2], 3.63 µM; in [3] it was greater than 27 µM; in assay [4], greater than 81.1 µM; in assay [5], greater than 100 µM; in assay [6], greater than 100 µM. Besides, the TGI in [7] is greater than 54.8 µM; in assay [8] it was greater than 32.2 µM; in assay [9], greater than 100 µM; in [10], greater than 100 µM; in assay [11], greater than 100 µM; in [12], greater than 100 µM.

For the compound `COc1ccc(/[N+]([O-])=C/c2ccc(OC(=S)S)c(OC)c2)cc1`, the TGI in assay [1], in assay [2], in assay [3], in assay [4], in assay [5] and in [6] was greater than 100 µM throughout. In addition, the TGI was greater than 100 µM in assay [7]; greater than 100 µM in assay [8]; 99.5 µM in assay [9]; greater than 100 µM in assay [10]; greater than 100 µM in [11]; greater than 100 µM in assay [12].

For `COc1ccc2c(c1)c1c3c(ccc4ncn2c43)N(CCO)CCN=1`, the TGI in [1] was determined as 2.56 µM; in assay [2] it was 0.347 µM; in assay [3], 0.466 µM; in [4], 0.359 µM; in assay [5], 5.53 µM; in assay [6] it was 1.46 µM. In addition, the TGI in assay [7] is 0.468 µM; in assay [8], 0.511 µM; in assay [9], 1.42 µM; in assay [10], 0.228 µM; in assay [11], 0.255 µM; in assay [12], 0.944 µM.
